Test results as given in US9763957B2, “Autotaxin inhibitors” (Novartis AG, priority 2013, dated 2017).

Target: Recombinant human ATX (Homo sapiens (Human), UniProt Q13822)
Assay: ATX inhibition assay (choline release, Amplex Red fluorescence)
Assay type: biochemical
Settings: ATX 10 nM, LPC 18:1 10 μM, 37° C., 20 min pre-incubation; mean of n≧2
Procedure, shortened: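 Activity was taken from the slope of resorufin fluorescence (530/590 nm, read every 2 min for 40 min at 37 °C) produced by choline liberated from 10 μM oleoyl LPC.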

Row | SMILES | IC50 [nM]
1 | Cc1nnn(Cc2cc(C(F)(F)F)ccc2/C=C/C(=O)N2CCC(Cc3nnc(C)o3)CC2)n1 [Example 81, (E)-1-(4-((5-Methyl-1,3,4-oxadiazol-2-yl)methyl)piperidin-1-yl)-3-(2-((5-methyl-2H-tetrazol-2-yl)methyl)-4-(trifluoromethyl)phenyl)prop-2-en-1-one] | 13
2 | COCC(=O)N(C)C1CCN(C(=O)/C=C/c2ccc(C(F)(F)F)cc2Cn2nnc(C)n2)CC1 [Example 84, (E)-2-Methoxy-N-methyl-N-(1-(3-(2-((5-methyl-2H-tetrazol-2-yl)methyl)-4-(trifluoromethyl)phenyl)acryloyl)piperidin-4-yl)acetamide] | 8.1
3 | Cc1nnn(Cc2cc(C(F)(F)F)ccc2/C=C/C(=O)N2CCN(Cc3ccn(C)n3)CC2)n1 [Example 89, (E)-1-(4-((1-Methyl-1H-pyrazol-3-yl)methyl)piperazin-1-yl)-3-(2-((5-methyl-2H-tetrazol-2-yl)methyl)-4-(trifluoromethyl)phenyl)prop-2-en-1-one] | 3.5
4 | CNC(=O)[C@@H]1CCCN1C(=O)/C=C/c1ccc(C(F)(F)F)cc1Cn1nnc(C)n1 [Example 90, (S,E)-N-Methyl-1-(3-(2-((5-methyl-2H-tetrazol-2-yl)methyl)-4-(trifluoromethyl)phenyl)acryloyl)pyrrolidine-2-carboxamide] | 49
5 | CNC(=O)[C@@H]1CC(F)(F)CN1C(=O)/C=C/c1ccc(C(F)(F)F)cc1Cn1nnc(C)n1 [Example 91, (S,E)-4,4-Difluoro-N-methyl-1-(3-(2-((5-methyl-2H-tetrazol-2-yl)methyl)-4-(trifluoromethyl)phenyl)acryloyl)pyrrolidine-2-carboxamide] | 160
6 | CCc1nnc(C2CCN(C(=O)/C=C/c3ccc(C(F)(F)F)cc3Cn3nnc(C)n3)CC2)o1 [Example 92, (E)-1-(4-(5-Ethyl-1,3,4-oxadiazol-2-yl)piperidin-1-yl)-3-(2-((5-methyl-2H-tetrazol-2-yl)methyl)-4-(trifluoromethyl)phenyl)prop-2-en-1-one] | 3.6
7 | Cc1nnn(Cc2cc(C(F)(F)F)ccc2/C=C/C(=O)N2CCN(Cc3noc(C)n3)CC2)n1 [Example 93, (E)-1-(4-((5-Methyl-1,2,4-oxadiazol-3-yl)methyl)piperazin-1-yl)-3-(2-((5-methyl-2H-tetrazol-2-yl)methyl)-4-(trifluoromethyl)phenyl)prop-2-en-1-one] | 10
8 | Cc1nnn(Cc2cc(Cl)ccc2/C=C/C(=O)N2CCC(c3nnc(C4CC4)o3)CC2)n1 [Example 96, (E)-3-(4-Chloro-2-((5-methyl-2H-tetrazol-2-yl)methyl)phenyl)-1-(4-(5-cyclopropyl-1,3,4-oxadiazol-2-yl)piperidin-1-yl)prop-2-en-1-one] | 8.3
9 | Cc1nnn(Cc2cc(Cl)ccc2/C=C/C(=O)N2CCC(c3nnc(C(C)C)o3)CC2)n1 [Example 100, (E)-3-(4-Chloro-2-((5-methyl-2H-tetrazol-2-yl)methyl)phenyl)-1-(4-(5-isopropyl-1,3,4-oxadiazol-2-yl)piperidin-1-yl)prop-2-en-1-one] | 3.9
10 | Cc1cc(CN2CCN(C(=O)/C=C/c3ccc(C(F)(F)F)cc3Cn3nnc(C)n3)CC2)on1 [Example 101, (E)-3-(2-((5-Methyl-2H-tetrazol-2-yl)methyl)-4-(trifluoromethyl)phenyl)-1-(4-((3-methylisoxazol-5-yl)methyl)piperazin-1-yl)prop-2-en-1-one] | 5
11 | CCS(=O)(=O)N1CCN(C(=O)/C=C/c2ccc(C(F)(F)F)cc2Cn2nnc(C)n2)CC1 [Example 102, (E)-1-(4-(Ethylsulfonyl)piperazin-1-yl)-3-(2-((5-methyl-2H-tetrazol-2-yl)methyl)-4-(trifluoromethyl)phenyl)prop-2-en-1-one] | 53
12 | Cc1nnn(Cc2cc(Cl)ccc2/C=C/C(=O)N2CCN(Cc3noc(C)n3)C[C@H]2C)n1 [Example 104, (R,E)-3-(4-Chloro-2-((5-methyl-2H-tetrazol-2-yl)methyl)phenyl)-1-(2-methyl-4-((5-methyl-1,2,4-oxadiazol-3-yl)methyl)piperazin-1-yl)prop-2-en-1-one] | 3.9

The remaining compounds from weak to strong by IC50, led by results:

Row | IC50 [nM] | SMILES
13 | 3140 | Cc1nnn(Cc2ccc(F)cc2/C=C/C(=O)N2CCC(Cc3nnc(C)o3)CC2)n1 [Example 79, (E)-3-(5-Fluoro-2-((5-methyl-2H-tetrazol-2-yl)methyl)phenyl)-1-(4-((5-methyl-1,3,4-oxadiazol-2-yl)methyl)piperidin-1-yl)prop-2-en-1-one]
14 | 1990 | Cc1nnc(CC2CCN(C(=O)/C=C/c3ccc(Cl)cc3Cn3ncnn3)CC2)o1 [Example 77, (E)-3-(2-((2H-Tetrazol-2-yl)methyl)-4-chlorophenyl)-1-(4-((5-methyl-1,3,4-oxadiazol-2-yl)methyl)piperidin-1-yl)prop-2-en-1-one]
15 | 1460 | Cc1nnn(Cc2c(F)cccc2/C=C/C(=O)N2CCC(Cc3nnc(C)o3)CC2)n1 [Example 78, (E)-3-(3-Fluoro-2-((5-methyl-2H-tetrazol-2-yl)methyl)phenyl)-1-(4-((5-methyl-1,3,4-oxadiazol-2-yl)methyl)piperidin-1-yl)prop-2-en-1-one]
16 | 1440 | Cc1nnc(CC2CCN(C(=O)/C=C/c3ccc(Cl)cc3Cn3nccn3)CC2)o1 [Example 75, (E)-3-(2-((2H-1,2,3-Triazol-2-yl)methyl)-4-chlorophenyl)-1-(4-((5-methyl-1,3,4-oxadiazol-2-yl)methyl)piperidin-1-yl)prop-2-en-1-one]
17 | 846 | COc1ccc(/C=C/C(=O)N2CCC(Cc3nnc(C)o3)CC2)c(Cn2nnc(C)n2)c1 [Example 83, (E)-3-(4-Methoxy-2-((5-methyl-2H-tetrazol-2-yl)methyl)phenyl)-1-(4-((5-methyl-1,3,4-oxadiazol-2-yl)methyl)piperidin-1-yl)prop-2-en-1-one]
18 | 785 | Cc1nnn(Cc2cc(C#N)ccc2/C=C/C(=O)N2CCC(Cc3nnc(C)o3)CC2)n1 [Example 82, (E)-4-(3-(4-((5-Methyl-1,3,4-oxadiazol-2-yl)methyl)piperidin-1-yl)-3-oxoprop-1-en-1-yl)-3-((5-methyl-2H-tetrazol-2-yl)methyl)benzonitrile]
19 | 454 | Cc1cnn(Cc2cc(Cl)ccc2/C=C/C(=O)N2CCC(Cc3nnc(C)o3)CC2)n1 [Example 80, (E)-3-(4-Chloro-2-((4-methyl-2H-1,2,3-triazol-2-yl)methyl)phenyl)-1-(4-((5-methyl-1,3,4-oxadiazol-2-yl)methyl)piperidin-1-yl)prop-2-en-1-one]
20 | 289 | Cc1nnn(Cc2cc(Cl)ccc2/C=C/C(=O)N2CC(c3nnc(C)o3)C2)n1 [Example 85, (E)-3-(4-Chloro-2-((5-methyl-2H-tetrazol-2-yl)methyl)phenyl)-1-(3-(5-methyl-1,3,4-oxadiazol-2-yl)azetidin-1-yl)prop-2-en-1-one]
21 | 73 | Cc1noc(Cc2cc(Cl)ccc2/C=C/C(=O)N2CCN(Cc3coc(C)n3)CC2)n1 [Example 76, (E)-3-(4-Chloro-2-((3-methyl-1,2,4-oxadiazol-5-yl)methyl)phenyl)-1-(4-((2-methyloxazol-4-yl)methyl)piperazin-1-yl)prop-2-en-1-one]
22 | 66 | Cc1nnn(Cc2cc(Cl)ccc2/C=C/C(=O)N2CC[C@@H](c3nnc(C)o3)C[C@H]2C)n1 [Example 98, (E)-3-(4-Chloro-2-((5-methyl-2H-tetrazol-2-yl)methyl)phenyl)-1-((2R,4R)-2-methyl-4-(5-methyl-1,3,4-oxadiazol-2-yl)piperidin-1-yl)prop-2-en-1-one]
23 | 25 | Cc1cc(CC(=O)N(C)C2CCN(C(=O)/C=C/c3ccc(C(F)(F)F)cc3Cn3nnc(C)n3)CC2)on1 [Example 95, (E)-N-Methyl-N-(1-(3-(2-((5-methyl-2H-tetrazol-2-yl)methyl)-4-(trifluoromethyl)phenyl)acryloyl)piperidin-4-yl)-2-(3-methylisoxazol-5-yl)acetamide]
24 | 25 | COCC1CCN(C(=O)/C=C/c2ccc(C(F)(F)F)cc2Cn2nnc(C)n2)CC1 [Example 99, (E)-1-(4-(Methoxymethyl)piperidin-1-yl)-3-(2-((5-methyl-2H-tetrazol-2-yl)methyl)-4-(trifluoromethyl)phenyl)prop-2-en-1-one]
25 | 23 | Cc1nnn(Cc2cc(C(F)(F)F)ccc2/C=C/C(=O)N2CCC(N3CCCCC3=O)CC2)n1 [Example 97, (E)-1′-(3-(2-((5-Methyl-2H-tetrazol-2-yl)methyl)-4-(trifluoromethyl)phenyl)acryloyl)-[1,4′-bipiperidin]-2-one]
26 | 19 | Cc1nnn(Cc2cc(C(F)(F)F)ccc2/C=C/C(=O)N2CCC(N(C)C(=O)c3ccc(F)cc3)CC2)n1 [Example 87]
27 | 16 | Cc1noc(CN2CCN(C(=O)/C=C/c3ccc(C(F)(F)F)cc3Cn3nnc(C)n3)CC2)n1 [Example 88, (E)-1-(4-((3-Methyl-1,2,4-oxadiazol-5-yl)methyl)piperazin-1-yl)-3-(2-((5-methyl-2H-tetrazol-2-yl)methyl)-4-(trifluoromethyl)phenyl)prop-2-en-1-one]
28 | 10 | CCc1nnc(C2CCN(C(=O)/C=C/c3ccc(Cl)cc3Cn3nnc(C)n3)CC2)o1 [Example 94, (E)-3-(4-Chloro-2-((5-methyl-2H-tetrazol-2-yl)methyl)phenyl)-1-(4-(5-ethyl-1,3,4-oxadiazol-2-yl)piperidin-1-yl)prop-2-en-1-one]
29 | 5.3 | Cc1nnn(Cc2cc(C(F)(F)F)ccc2/C=C/C(=O)N2CCC(c3nnc(C4CCC4)o3)CC2)n1 [Example 103, (E)-1-(4-(5-Cyclobutyl-1,3,4-oxadiazol-2-yl)piperidin-1-yl)-3-(2-((5-methyl-2H-tetrazol-2-yl)methyl)-4-(trifluoromethyl)phenyl)prop-2-en-1-one]
30 | 4.8 | Cc1nnn(Cc2cc(C(F)(F)F)ccc2/C=C/C(=O)N2CCC(c3nnc(C4CC4)o3)CC2)n1 [Example 86, (E)-1-(4-(5-Cyclopropyl-1,3,4-oxadiazol-2-yl)piperidin-1-yl)-3-(2-((5-methyl-2H-tetrazol-2-yl)methyl)-4-(trifluoromethyl)phenyl)prop-2-en-1-one]
